Source: ChEMBL document CHEMBL5725254, “Substituted annulated triazines and use thereof” (2016)
pIC50: −log10 of the molar value.

Target: cGMP-specific 3',5'-cyclic phosphodiesterase (Homo sapiens, UniProt O76074)
Assay: Inhibition Assay: To determine their in vitro action on human PDE 5, the test substances are dissolved in 100% DMSO and serially diluted. Typically, dilution series (1:3) from 200 uM to 0.091 uM are prepared (resulting final concentrations in the test: 4 uM to 0.0018 uM). In each case 2 ul of the diluted substance solutions are placed into the wells of microtitre plates (Isoplate-96/200W; Perkin Elmer). Subsequently, 50 ul of a dilution of the above-described PDE 5 preparation are added. The dilution of the PDE 5 preparation is chosen such that during the later incubation less than 70% of the substrate are converted (typical dilution: 1:100; dilution buffer: 50 mM Tris/hydrochloric acid pH 7.5, 8.3 mM magnesium chloride, 1.7 mM EDTA, 0.2% BSA). The substrate, [8-3H] cyclic guanosine-3',5'-monophosphate (1 uCi/ul; Perkin Elmer) is diluted 1:2000 with assay buffer (50 mM tris/hydrochloric acid pH 7.5, 8.3 mM magnesium chloride, 1.7 mM EDTA) to a concentration of 0.0005 uCi/ul. By addition of 50 ul (0.025 uCi) of the diluted substrate, the enzyme reaction is finally started. The test mixtures are incubated at room temperature for 60 min and the reaction is stopped by adding 25 ul of a suspension of 18 mg/ml yttrium scintillation proximity beads in water (phosphodiesterase beads for SPA assays, RPNQ 0150, Perkin Elmer). […]

pIC50: 6.24
Structure (SMILES): CC1(C)C(=O)Nc2nc(-c3nn(Cc4ccccc4F)c4ncc(F)cc34)nc(CNC(=O)C3CC3)c21
